Here are results for three compounds from article PMC5503534, “Stable aneuploid tumors cells are more sensitive to TTK inhibition than chromosomally unstable cell lines” (Oncotarget, 2017).

One data set concerns the target T1, full-length Aurora B (Homo sapiens, UniProt Q96GD4).
T1 construct: to the kinase domain of TTK and full-length Aurora B; purchased Carna Biosciences, Inc., Kobe, Japan; host or cells: Sf9 insect cells
As to the kind of experiment: Surface plasmon resonance binding kinetics, Aurora B. The conditions noted are these: SPR, geometric average. From the text:
(§1) Originally, the compound was identified in a phenotypic screen for molecules that can induce stem-cell like phenotypes. Later this property was attributed to its ability to inhibit the mitotic kinase Aurora B [39].
(Surface plasmon resonance follows binding to a sensor surface in real time, without labels.)

Data set [1] deals with HCT 116 colon carcinoma cell line. Nature of the data set: Cell proliferation assay (ATPlite), HCT 116. Format: cell-based, human. The conditions noted are these: for Eff. (%): HCT 116, five days, maximum inhibitory effect, average of three experiments. How it is done: (§2) Cell proliferation assays were carried out as described using ATPlite 1step™ (Perkin Elmer, Groningen, The Netherlands). Exposure time was 72 or 120 hours as indicated in the Legends to the Figures. Percentage growth was calculated, relative to the growth of unexposed cells, and relative IC50s were fitted using a four-parameter logistics curve (XLfit 5.3, IDBS). For Figure 4A and 7 dose response curves were redrawn in Prism. To compare the inhibitory potency of compounds in proliferation assays with HCT 116 parental and tetraploid clones, pIC50 (−^10logIC50) values were compared in three independent experiments. A two-tailed Student's t-test was performed to determine whether differences in sensitivity (ΔpIC50) were statistically significant. Caspase 3/7 activity of cancer cells was measured using Caspase-Glo 3/7 Assay kit (cat no. G8093, Promega, Madison USA). Viability of T-ALL cell samples was determined using ATPlite and exposure of 72 hours as described previously.
On the technique in general: Cellular ATP, detected with luciferase, serves as a proxy for viable cell number.

Data set [2] relates to post-tetraploid HPT1 cells. Nature of the data set: Cell proliferation assay, post-tetraploid HPT1. It is filed as cell-based, human. The following applies: HPT1, five days; for Efficacy (%): average of three experiments; for IC50: geometric average of three experiments. On the procedure:
(§3) Cancer cell lines and hTERT-RPE1 retinal pigment epithelial cells were purchased from the American Type Culture Collection (ATCC) (Manassas, VA, U.S.A.) from 2011 to 2014 [41] and cultured in ATCC-recommended media. All experiments were carried out within nine passages of the original vials from ATCC who authenticated the cancer cell lines by short tandem repeat analysis. We verified the mutant status of seven frequently mutated cancer genes (i.e., BRAF, CDKN2A, CTNNB1, EGFR, KRAS, PIK3CA and TP53) by full exome or targeted sequencing. Sequencing results were compared to COSMIC version 75 of the Genomics of Drug Sensitivity in Cancer data base and provided additional authentication of the identity of the cell lines. The isolation and characterization of post-tetraploid clones from HCT 116 has been described previously. The mutation status of the CDKN2A, CTNNB1, KRAS and PIK3CA genes were confirmed by sequence analysis in both the HCT 116 parental cell line and post-tetraploid clones. All experiments were carried out within nine passages of the original cell stocks that were transferred from the Max Planck Institute of Biochemistry (Martinsried, Germany) to Netherlands Translational Research Center.
as §2

Data set [3] has as its system post-tetraploid HPT2 cells. As to the kind of experiment: Cell proliferation assay, post-tetraploid HPT2. Format: cell-based, human. The conditions noted are these: HPT2, five days; for Efficacy (%): average of three experiments; for IC50: geometric average of three experiments. On the procedure: as §3, §2
For data set [4], the system named is post-tetraploid HPT4 cells. As to the kind of experiment: Cell proliferation assay, post-tetraploid HPT4. It is filed as cell-based, human. The following applies: HPT4, five days; for Efficacy (%): average of three experiments; for IC50: geometric average of three experiments. On the procedure:
as §3, §2

Data set [5] relates to HCT 116 vs HPT1, -2 and -4. Nature of the data set: Drug sensitivity analysis, HCT116 diploid versus tetraploids. It is filed as cell-based, human. The following applies: for Δeff. (%) / Phenotype (potency): HCT 116 vs HPT1, -2 and -4; for Phenotype (efficacy): HCT 116 vs HPT1, -2 and -4, based on % effect; for Phenotype (potency): 'resistant' indicates that tetraploids are resistant; for ΔpIC50: average log shift in sensitivity between parental and tetraploids. How it is done: as §2

Data set [6] concerns HCT 116 colon carcinoma cell line. The following applies: three day cell proliferation assay; cited from earlier work.
Data set [7] relates to LoVo colorectal adenocarcinoma cell line. The conditions noted are these: three day cell proliferation assay; cited from earlier work.
In data set [8] the test system is A-172 glioblastoma cell line. The following applies: three day cell proliferation assay; cited from earlier work.
Data set [9] concerns DoTc2 4510 cervix carcinoma cell line. The following applies: three day cell proliferation assay; cited from earlier work.
The subject of data set [10] is MG-63 osteosarcoma cell line. The following applies: three day cell proliferation assay; cited from earlier work.
Data set [11] deals with OVCAR-3 ovary adenocarcinoma cell line. The following applies: three day cell proliferation assay; cited from earlier work.
Data set [12] concerns 66 cancer cell lines (44 cell lines). Details: method as in earlier work. The conditions noted are these: cited from earlier work.
For data set [13] the following is noted: mouse, in vivo; cited from earlier work.
In the next data set the target is T2, TTK kinase domain (Homo sapiens, UniProt P33981).
T2 construct: using bacterially expressed TTK kinase domain and Sf9 insect cell-expressed Aurora B; purchased Carna Biosciences, Inc., Kobe, Japan
T2 sequence (P33981 525-791 limits assumed): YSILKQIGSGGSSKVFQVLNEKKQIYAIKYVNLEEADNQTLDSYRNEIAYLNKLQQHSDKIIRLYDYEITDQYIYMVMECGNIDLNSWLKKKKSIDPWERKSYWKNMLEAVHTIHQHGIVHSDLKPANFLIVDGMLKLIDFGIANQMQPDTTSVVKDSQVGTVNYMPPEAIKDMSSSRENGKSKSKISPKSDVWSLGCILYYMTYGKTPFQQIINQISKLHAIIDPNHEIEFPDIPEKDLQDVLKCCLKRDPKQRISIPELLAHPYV
As to the kind of experiment: Surface plasmon resonance binding kinetics, TTK. The following applies: SPR, geometric average.
From the text: as §1

In data set [14] the test system is A-172 glioblastoma cell line. As to the kind of experiment: Cell proliferation assay (ATPlite), A-172. It is filed as cell-based, human. The following applies: Homo sapiens, 120 h, 5 day proliferation assay. How it is done: as §2
In data set [15] the test system is DoTc2 4510 cervix carcinoma cell line. As to the kind of experiment: Cell proliferation assay (ATPlite), DoTc2 4510. Format: cell-based, human. The conditions noted are these: Homo sapiens, 120 h, 5 day proliferation assay. How it is done:
as §2

Data set [16] has as its system MG-63 osteosarcoma cell line. Nature of the data set: Cell proliferation assay (ATPlite), MG-63. Format: cell-based, human. The following applies: Homo sapiens, 120 h, 5 day proliferation assay. How it is done:
as §2

Data set [17] relates to OVCAR-3 ovary adenocarcinoma cell line. Nature of the data set: Cell proliferation assay (ATPlite), OVCAR-3. Format: cell-based, human. The following applies: Homo sapiens, 120 h, 5 day proliferation assay. On the procedure: as §2
For data set [18], the system named is patient-derived colorectal carcinoma organoids. As to the kind of experiment: Organoids drug sensitivity and viability assay. Format: cell-based, human. The following applies: Homo sapiens. How it is done: The establishment and characterization of the human colon cancer organoids has been described. The organoids were cultured in drops of Geltrex LDEV-Free Reduced Growth Factor Basement Membrane Matrix (Gibco, cat no. A1413202) in DMEM/F12 medium (Thermo), supplemented with 1% (v/v) penicillin/streptomycin (Gibco), 1% Hepes buffer, pH7.5, 1% L-glutamine (Gibco), 1 μg/mL R-spondin (Sigma), 100 ng/mL Noggin (Peprotech), B27 vitamin A-free (Invitrogen, cat no. 12587010), 1 mM n-acetyl cysteine (Sigma), 10 mM nicotinamide (Sigma), 50 ng/mL EGF (BD Biosciences), 500 nM A83-01 (Tocris), 10 μM SB202190 (Sigma), 10 μM Y-27632 (Sigma) and 10 nM Prostaglandin E2 (Cayman). Medium was refreshed every four days and organoids were splitted by treatment with TryPLE Express (Gibco, cat. no. 12604013).
Organoids were dissociated by TryPLE Express treatment and filtered using a 40 μm nylon cell strainer (Falcon). The organoids were re-suspended in Geltrex at a density of 250,000 cells/mL and seeded in the wells of 96-well plates (Corning, cat no. 3903) at 10 μl per well. Compounds were added four days after plating and 72 hours later viability was determined using Cell-Titer Glo 3D Cell Viability Assay (Promega, Madison USA). Experiments were performed in three biological replicates and technical triplicates were averaged per experiment.

Molecules are shown by their SMILES. Where two headings read alike, the source gives them in different places.

T1 sequence (Q96GD4 whole entry, the tested form may be a part): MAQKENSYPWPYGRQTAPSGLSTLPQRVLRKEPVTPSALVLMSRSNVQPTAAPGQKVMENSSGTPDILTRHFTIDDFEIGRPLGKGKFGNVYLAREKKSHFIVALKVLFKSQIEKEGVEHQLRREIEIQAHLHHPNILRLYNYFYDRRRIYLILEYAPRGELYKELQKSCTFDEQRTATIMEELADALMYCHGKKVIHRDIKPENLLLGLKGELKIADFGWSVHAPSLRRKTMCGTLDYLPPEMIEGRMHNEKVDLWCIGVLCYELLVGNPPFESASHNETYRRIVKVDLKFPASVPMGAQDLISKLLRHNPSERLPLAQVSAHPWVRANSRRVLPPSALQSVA

With `Cc1cc(N2CCOCC2)ccc1Nc1nc(NC2CCCCC2)c2[nH]cnc2n1` [MPI-047605], at full-length Aurora B, the ka worked out at 9550 M⁻¹ s⁻¹. For the same compound, the kd on full-length Aurora B was 0.291 s⁻¹. Besides, in data set [1], the “Eff. (%)” value stood at 72%. The IC50 in [1] (HCT 116 near-diploid, five days, geometric average of three experiments (Suppl. Table 2A)) was 233 nM; in [2], 208 nM; in data set [3] it was 199 nM; in data set [4], 191 nM; in data set [6], 234 nM; in data set [7] it was 220 nM. The IC50 in data set [8] was 198 nM; in data set [9] it was 8390 nM; in [10] it was 899 nM; in [11], 7330 nM; in data set [12] (3 days, geometric average in 44 cell lines), 448 nM. In addition, the “Efficacy (%)” value in data set [2] stood at 52%; in [3], 46%; in data set [4] it was 51%. Besides, in data set [5], the “Δeff. (%)” value is listed as −22%. Further, the “Phenotype (efficacy)” value in [5] was “resistant”. Moreover, in [5], the “Phenotype (potency)” value is “sensitive”. Also, in [5], the ΔpIC50 was −0.07.

Turning to `CC(=O)O[C@@]12CO[C@@H]1C[C@H](O)[C@@]1(C)C(=O)[C@H](O)C3=C(C)[C@@H](OC(=O)[C@H](O)[C@@H](NC(=O)OC(C)(C)C)c4ccccc4)C[C@@](O)([C@@H](OC(=O)c4ccccc4)[C@H]21)C3(C)C` [docetaxel], the IC50 in data set [6] is 2 nM; in data set [7], 8 nM; in [8], 3 nM; in data set [9] it was 3 nM; in data set [10], 1 nM; in data set [11], 4 nM. In data set [13], the “effect on bone marrow or blood cell count (hematological toxicity)” value is on record as “hematological toxicity was seen”.

As for `c1nc2nc(Nc3ccc(N4CCOCC4)cc3)nc(NC3CCCCC3)c2[nH]1` [reversine], the kd on TTK kinase domain worked out at 8.86e-05 s⁻¹; on full-length Aurora B it was 0.00484 s⁻¹. In data set [1], the “Eff. (%)” value came out at 77%. The IC50 stood at 175 nM in data set [1] (Homo sapiens, HCT-116, 120 h, 5 day proliferation assay, HCT 116 (Suppl. Table 1)); 242 nM in [1] (Homo sapiens, HCT-116, 120 h, HCT 116 near-diploid, five days, geometric average of three experiments (Suppl. Table 2A)); 158 nM in data set [14]; 416 nM in data set [15]; 434 nM in data set [16]; 441 nM in data set [17]. The IC50 was 208 nM in [2] (Homo sapiens, 120 h); 253 nM in data set [3] (Homo sapiens, 120 h); 159 nM in data set [4] (Homo sapiens, 120 h); 493 nM in data set [18] (72 h, organoid p14, three days, read-out: IC50); 468 nM in data set [18] (72 h, organoid p14, three days, read-out: pIC50 (converted)); 285 nM in data set [18] (72 h, organoid p18, three days, read-out: IC50). Further, the IC50 in data set [18] (72 h, organoid p18, three days, read-out: pIC50 (converted)) is 269 nM; in [18] (72 h, organoid p28, three days, read-out: IC50), 757 nM; in data set [18] (72 h, organoid p28, three days, read-out: pIC50 (converted)), 646 nM; in data set [18] (All organoids, geometric average, read-out: pIC50 (converted)) it was 437 nM; in data set [12] (5 days, geometric average in 66 cancer cell lines), 239 nM. Besides, the “Efficacy (%)” value in data set [2] worked out at 58%; in data set [3], 44%; in data set [4], 33%. Moreover, the “Δeff. (%)” value in data set [5] was −32%. Also, the “Phenotype (efficacy)” value in [5] is “resistant”. In addition, the “Phenotype (potency)” value in data set [5] is “sensitive”. The ΔpIC50 in [5] is on record as −0.08.
